“And” between values parts separate entries of the source, which are not always exact repeats. Identical values can stand only once.
Columns and labels:
Assay type in all cases: biochemical
thrombin mutant R97A = molecular target: T1, thrombin mutant R97A (Homo sapiens, UniProt P00734, R456A); experiment: Inhibition of thrombin mutant R97A; settings: pH 7.4, 25 °C
T1 construct: a group of thrombin mutants containing replacement of either Arg or Lys present in exosite 2 to Ala
Description: (§1) Chromogenic substrate hydrolysis assay was used to measure potency of inhibition, as previously reported. The assay was performed using Flexstation III (Molecular Devices, Sunnyvale, CA) by monitoring substrate hydrolysis at 405 nm. For thrombin and its mutants, 180 μL of buffer (20 mM Tris-HCl, 100 mM NaCl, 2.5 mM CaCl2, 0.1% (polyethylene glycol) PEG 8000, pH 7.4) was added to each well followed by 5 μL of 240 nM thrombin and 10 μL of sulfated coumarin in DMSO to give 0.002 to 250 μM final concentration (or 10 μL of DMSO alone). After incubation for 10 min at 25 °C, 5 μL of 2 mM Spectrozyme TH was added to each well simultaneously and allowed to react for 60 seconds at 25 °C while simultaneously monitoring the reaction to obtain the rate of increase in A405. Identical experimental conditions were used for reactions in the presence of antithrombin, except for 100 nM of antithrombin added prior to the addition of the substrate.

thrombin mutant R126A = molecular target: T2, thrombin mutant R126A (Homo sapiens, UniProt P00734, R486A); experiment: Inhibition of thrombin mutant R126A; settings: pH 7.4, 25 °C
T2 construct: a group of thrombin mutants containing replacement of either Arg or Lys present in exosite 2 to Ala
Description: as §1

thrombin mutant R175A = molecular target: T3, thrombin mutant R175A (Homo sapiens, UniProt P00734, R543A); experiment: Inhibition of thrombin mutant R175A; settings: pH 7.4, 25 °C
T3 construct: a group of thrombin mutants containing replacement of either Arg or Lys present in exosite 2 to Ala
Description: as §1

thrombin [1] = molecular target: T4, thrombin (Homo sapiens, UniProt P00734); experiment: Chromogenic substrate hydrolysis assay, thrombin inhibition (Spectrozyme TH); design: 6 nM plasma α-thrombin; purchased Haematologic Technologies (Essex Junction, VT); settings: pH 7.4, 25 °C
Description: as §1
For factor XIa inhibition studies, 85 μL of buffer (50 mM Tris-HCl, 150 mM NaCl, 0.1% PEG 8000, 0.02% Tween 80, pH 7.4) was added to each well, followed by 7 μL of 15.3 nM enzyme and 3 μL of sulfated coumarin (3.75–500 μM final concentration) and incubated for 10 min at 37 °C. After the incubation period, 5 μL of 6.9 mM S-2366 was added to each well simultaneously and allowed to react for 300 sec at 37 °C. For factor Xa assay, 180 μL of buffer (20 mM Tris-HCl, 100 mM NaCl, 2.5 mM CaCl2, 0.1% PEG 8000, 0.02% Tween 80, pH 7.4) was added to each well followed by 5 μL of 43.5 nM enzyme, 10 μL of sulfated coumarin (0.002–250 μM final concentration). After a 10 min incubation, 5 μL of 5 mM Spectrozyme FXa was added to each well simultaneously and allowed to react for 300 seconds at 37 °C. The slopes generated from each experiment were used to calculate the fractional residual activity (Y) at each concentration of the inhibitor, and analyzed using logistic equation 1, in which YM is the maximum efficacy, Y0 is minimum efficacy and HS is the Hill slope.

thrombin [2] = molecular target: T4, thrombin; experiment: Michaelis-Menten kinetics of Spectrozyme TH hydrolysis by thrombin; design: 6 nM plasma α-thrombin; purchased Haematologic Technologies (Essex Junction, VT); settings: for VMAX: pH 7.4, 25 °C
Description: Four concentrations (0, 25, 187, and 2500 nM) of 3g were studied in triplicate where 3g was incubated with thrombin for 10 min in buffer (20 mM Tris-HCl, 100 mM NaCl, 2.5 mM CaCl2, 0.1% PEG 8000, pH 7.4) at 25 °C. Spectrozyme TH at various concentrations (0–250 μM) was added at each of the four 3g concentrations and the initial rate of hydrolysis was recorded from the increase in A405 as a function of time. This slope was fitted to the standard Michaelis-Menten equation to derive VMAX and KM of the reaction at each of the 3g concentrations.

thrombin mutant R101A = molecular target: T5, thrombin mutant R101A (Homo sapiens, UniProt P00734, R461A); experiment: Inhibition of thrombin mutant R101A; settings: pH 7.4, 25 °C
T5 construct: a group of thrombin mutants containing replacement of either Arg or Lys present in exosite 2 to Ala
Description: as §1

thrombin mutant R233A = molecular target: T6, thrombin mutant R233A (Homo sapiens, UniProt P00734, R608A); experiment: Inhibition of thrombin mutant R233A; settings: pH 7.4, 25 °C
T6 construct: a group of thrombin mutants containing replacement of either Arg or Lys present in exosite 2 to Ala
Description: as §1

thrombin [3] = molecular target: T4, thrombin; experiment: Thrombin inhibition in the presence of exosite 1 (HirP) and exosite 2 (UFH) ligands; design: 6 nM plasma α-thrombin; purchased Haematologic Technologies (Essex Junction, VT)
Description: Thrombin inhibition by 3g was examined in the presence of either HirP (exosite 1 ligand) or UFH (exosite 2 ligand). 3g was prepared in DMSO (0.010–50 μM) and thrombin (4–8 nM) were incubated at 25 °C with HirP (0–187 nM) or UFH (0–22.8 μM) in buffer (20 mM Tris-HCl, 100 mM NaCl, 2.5 mM CaCl2, 0.1% PEG 8000, pH 7.4). After 10 min, thrombin activity was measured using Spectrozyme TH hydrolysis assay, as described above. The slopes obtained (in triplicate) were fitted using equation 1 to calculate IC50,app, ∆Y, and HS. The IC50,app at each concentration of the competitor was also calculated using the Dixon-Webb relationship (equation 3) from the known affinities (Kcomp) of the competitor.

O=c1oc2cc(OCCCCn3cc(COc4ccc(-c5c(-c6ccccc6)c6cc(Cl)cc(Cl)c6oc5=O)cc4)nn3)ccc2c(-c2ccccc2)c1-c1ccc(OS(=O)(=O)O)cc1 [3g]
HS (thrombin mutant R97A): 2.4
IC50 (thrombin mutant R97A): 380 ± 70 nM
ΔY (thrombin mutant R97A): 41 ± 4%
HS (thrombin mutant R126A): 3.2
IC50 (thrombin mutant R126A): 308 ± 30 nM
ΔY (thrombin mutant R126A): 41 ± 2%
HS (thrombin mutant R175A): 2.2
IC50 (thrombin mutant R175A): 409 ± 80 nM
ΔY (thrombin mutant R175A): 42 ± 5%
Hill slope (HS) of thrombin inhibition (thrombin [1]): 1.2
efficacy of thrombin inhibition (ΔY) (thrombin [1]; at saturation): 47% and 50%
IC50 (thrombin [1]; read-out: IC50 against thrombin): 180 nM
VMAX (thrombin [2]; [3g] 25 nM): 52.4 ± 1.5 mAU/min
VMAX (thrombin [2]; [3g] 187 nM): 45.3 ± 1.1 mAU/min
VMAX (thrombin [2]; [3g] 2500 nM): 31.0 ± 0.9 mAU/min and 31.0 mAU/min
reduction of VMAX (thrombin [2]; at saturating levels of 3g): ≤ 50%
HS (thrombin mutant R101A): 2.5
IC50 (thrombin mutant R101A): 255 ± 50 nM
ΔY (thrombin mutant R101A): 35 ± 4%
HS (thrombin mutant R233A): 2.0
IC50 (thrombin mutant R233A): 359 ± 70 nM
ΔY (thrombin mutant R233A): 33 ± 4%
IC50 (thrombin [3]; [HirP] 0 nM, Dixon-Webb relationship, read-out: IC50,predicted): 240 nM
HS (thrombin [3]; [HirP] 0 nM, pH 7.4, 25 °C): 3.3
ΔY (thrombin [3]; [HirP] 0 nM, pH 7.4, 25 °C): 52 ± 2%
IC50 (thrombin [3]; [HirP] 0 nM, pH 7.4, 25 °C, read-out: IC50,app): 220 ± 20 nM
IC50 (thrombin [3]; [HirP] 25 nM, Dixon-Webb relationship, read-out: IC50,predicted): 450 nM
HS (thrombin [3]; [HirP] 25 nM, pH 7.4, 25 °C): 2.4
ΔY (thrombin [3]; [HirP] 25 nM, pH 7.4, 25 °C): 58 ± 1%
IC50 (thrombin [3]; [HirP] 25 nM, pH 7.4, 25 °C, read-out: IC50,app): 330 ± 20 nM
IC50 (thrombin [3]; [HirP] 187 nM, Dixon-Webb relationship, read-out: IC50,predicted): 670 nM
HS (thrombin [3]; [HirP] 187 nM, pH 7.4, 25 °C): 2.0
ΔY (thrombin [3]; [HirP] 187 nM, pH 7.4, 25 °C): 59 ± 6%
IC50 (thrombin [3]; [HirP] 187 nM, pH 7.4, 25 °C, read-out: IC50,app): 330 ± 60 nM
IC50 (thrombin [3]; [UFH] 0 μM, Dixon-Webb relationship, read-out: IC50,predicted): 170 nM
HS (thrombin [3]; [UFH] 0 μM, pH 7.4, 25 °C): 1.3
ΔY (thrombin [3]; [UFH] 0 μM, pH 7.4, 25 °C): 56 ± 3%
IC50 (thrombin [3]; [UFH] 0 μM, pH 7.4, 25 °C, read-out: IC50,app): 170 ± 20 nM
IC50 (thrombin [3]; [UFH] 11.4 μM, Dixon-Webb relationship, read-out: IC50,predicted): 290 nM
HS (thrombin [3]; [UFH] 11.4 μM, pH 7.4, 25 °C): 1.7
ΔY (thrombin [3]; [UFH] 11.4 μM, pH 7.4, 25 °C): 66 ± 5%
IC50 (thrombin [3]; [UFH] 11.4 μM, pH 7.4, 25 °C, read-out: IC50,app): 290 ± 30 nM
IC50 (thrombin [3]; [UFH] 22.8 μM, Dixon-Webb relationship, read-out: IC50,predicted): 450 nM
HS (thrombin [3]; [UFH] 22.8 μM, pH 7.4, 25 °C): 3.7
ΔY (thrombin [3]; [UFH] 22.8 μM, pH 7.4, 25 °C): 59 ± 3%
IC50 (thrombin [3]; [UFH] 22.8 μM, pH 7.4, 25 °C, read-out: IC50,app): 580 ± 30 nM
increase of IC50 in the presence of HirP (thrombin [3]; exosite 1 ligand HirP): 50%
